Data reported in PMC5234269 (Chemical communications (Cambridge, England), 2015).
Several values for one entry are separate records, joined by “and”; a condition that tells them apart may be missing. Equal entries are not always repeated. Where two headings read alike, the source gives them in different places.

Assays:
D3R = D3R (Homo sapiens, UniProt P35462); assay: Radioligand binding to D3R with and without Na+
D2R = D2R (Homo sapiens, UniProt P14416); assay type: binding
[1] = system: Tyr(7.43) to Cys mutant receptor; settings: mutant vs wild type; cited from earlier work

Chain of D2R (P14416 whole entry): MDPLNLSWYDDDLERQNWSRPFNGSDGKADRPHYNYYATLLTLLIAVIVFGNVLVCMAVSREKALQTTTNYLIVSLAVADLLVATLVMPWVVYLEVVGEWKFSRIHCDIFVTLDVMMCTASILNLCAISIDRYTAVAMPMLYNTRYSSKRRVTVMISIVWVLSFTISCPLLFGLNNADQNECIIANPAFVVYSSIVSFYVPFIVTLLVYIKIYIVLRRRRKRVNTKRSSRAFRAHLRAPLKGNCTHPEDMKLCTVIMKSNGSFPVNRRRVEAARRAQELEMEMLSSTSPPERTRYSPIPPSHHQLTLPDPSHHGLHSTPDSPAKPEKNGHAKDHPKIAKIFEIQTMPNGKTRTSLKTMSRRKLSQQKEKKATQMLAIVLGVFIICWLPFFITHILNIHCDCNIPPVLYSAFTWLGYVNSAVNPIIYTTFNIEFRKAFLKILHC
Chain of D3R (P35462 whole entry): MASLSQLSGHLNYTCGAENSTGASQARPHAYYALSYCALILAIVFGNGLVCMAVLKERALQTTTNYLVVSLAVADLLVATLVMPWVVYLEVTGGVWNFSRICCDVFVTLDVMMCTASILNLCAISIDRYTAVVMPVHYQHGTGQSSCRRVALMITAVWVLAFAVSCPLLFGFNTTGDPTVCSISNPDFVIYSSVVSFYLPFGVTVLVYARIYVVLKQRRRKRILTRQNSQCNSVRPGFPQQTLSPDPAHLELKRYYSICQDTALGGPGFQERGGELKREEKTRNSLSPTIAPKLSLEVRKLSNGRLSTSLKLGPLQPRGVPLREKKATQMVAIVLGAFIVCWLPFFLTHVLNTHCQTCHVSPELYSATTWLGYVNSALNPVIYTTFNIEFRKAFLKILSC

CCc1cc(Cl)c(OC)c(C(=O)NC[C@@H]2CCCN2CC)c1O [eticlopride]
effect of Na+ on binding to the D3R (D3R): increased
increase of affinity for the D2R in the presence of Na+ (D2R): ~ 3 fold
Ki (D2R; Ki): 670 pM and 270 pM

CN1CN(c2ccccc2)C2(CCN(CCCC(=O)c3ccc(F)cc3)CC2)C1=O [methylspiperone]
decrease of binding by mutation of Tyr(7.43) to Cys [1]: 3 fold

O=C(CCCN1CCC2(CC1)C(=O)NCN2c1ccccc1)c1ccc(F)cc1 [spiperone]
effect of presence or absence of Na+ on affinity for the D2R (D2R): does not affect

CCN1CCCC1CNC(=O)c1cc(S(N)(=O)=O)ccc1OC (stereo not drawn) [sulpiride]
effect of Na+ on binding to the D3R (D3R; result in words, Fig. S2): increased
decrease of binding by mutation of Tyr(7.43) to Cys [1]: 185 fold
increase of affinity for the D2R in the presence of Na+ (D2R; +Na+ vs -Na+): ~ 23 fold

CN(C)CCOC1=Cc2ccccc2Sc2ccc(Cl)cc21 [zotepine]
decrease of affinity for the D2R in the presence of Na+ (D2R; +Na+ vs -Na+): ~ 7 fold
